# Strand notation (5' to 3'): a small letter for the sugar, then the base; units joined by * are phosphorothioate-linked, units joined directly phosphodiester-linked; [ ] holds rarer units or linkages, { } end groups; capitals alone tell only the bases. e = 2'-O-(2-methoxyethyl) (MOE); [5mC] = 5-methylcytosine; d = 2'-deoxy (DNA)
# System: human SMAD7 mRNA
# Assay: Antisense inhibition of human SMAD7 mRNA expression in Hep3B cells by 5-10-5 MOE gapmers, single concentration, electroporation, RT-PCR (Example 1, Study 1 and 2)
# Type: cell-based
# Conditions: Study 2, electroporation with 15,000 nM antisense oligonucleotide, 5-10-5 MOE gapmers targeting SEQ ID NO: 1 and 2
# Procedure: Antisense oligonucleotides were designed to target human SMAD7 mRNA and were tested for their effects on SMAD7 mRNA expression in vitro. Cultured Hep3B cells at a density of 20,000 cells per well were transfected using electroporation with antisense oligonucleotide ION 483663 (a 5-10-5 MOE gapmer), the sequence of which overlaps with ION 28453 (a 4-10-4 MOE gapmer) was included in these assays for comparison. ION 28453 has been previously disclosed in U.S. Pat. No. 6,159,697). After a treatment period of approximately 24 hours, RNA was isolated from the cells and SMAD7 mRNA levels were measured by quantitative real-time PCR. Primer probe set RTS5062 (forward sequence […], designated herein as SEQ ID NO: 11; reverse sequence […], designated herein as SEQ ID NO: 12; probe sequence […], designated herein as SEQ ID NO: 13) was used to measure human SMAD7 mRNA levels. SMAD7 mRNA levels were adjusted according to total RNA content, as measured by RIBOGREEN®. Results are presented as percent inhibition of SMAD7 mRNA expression, relative to untreated control cells.
# The newly designed chimeric antisense oligonucleotides in the Tables below were designed as 5-10-5 MOE gapmers. The gapmers are 20 nucleosides in length, wherein the central gap segment comprises of ten 2′-deoxynucleosides and is flanked by wing segments on the 5′ direction and the 3′ direction comprising five nucleosides each. Each nucleoside in the 5′ wing segment and each nucleoside in the 3′ wing segment has a 2′-MOE modification. The internucleoside linkages throughout each gapmer are phosphorothioate (P═S) linkages. All cytosine residues throughout each gapmer are 5-methylcytosines.
# “Start site” indicates the 5′-most nucleoside to which the gapmer is targeted in the human gene sequence. “Stop site” indicates the 3′-most nucleoside to which the gapmer is targeted human gene sequence.
# Cultured Hep3B cells at a density of 20,000 cells per well were transfected using electroporation with 5,000 nM antisense oligonucleotide.
# Cultured Hep3B cells at a density of 20,000 cells per well were transfected using electroporation with 15,000 nM antisense oligonucleotide. The antisense oligonucleotides were tested in a series of experiments that had similar culture conditions as described below.
# Some of the oligonucleotides presented were complementary to SMAD7 mRNA sequences RefSeqNo. NM_001190821.1 (designated herein as SEQ ID NO: 3) or RefSeqNo. NM_001190822.1 (designated herein as SEQ ID NO: 4), and are presented in a separate table shown below.
Substance,% Inhibition [%],% inhibition of SMAD7 mRNA expression [%]
771421 (eG*e[5mC]*e[5mC]*e[5mC]*eT*dG*d[5mC]*d[5mC]*d[5mC]*dG*dG*dG*d[5mC]*d[5mC]*dG*e[5mC]*e[5mC]*eG*e[5mC]*e[5mC]; antisense) [compound 771421],0,–
771423 (eG*e[5mC]*eA*eG*e[5mC]*dA*dT*d[5mC]*d[5mC]*dA*dG*d[5mC]*d[5mC]*d[5mC]*dT*eG*e[5mC]*e[5mC]*e[5mC]*eG; antisense) [compound 771423],39,–
771424 (e[5mC]*e[5mC]*e[5mC]*eA*eG*dG*d[5mC]*dA*dG*d[5mC]*dA*dT*d[5mC]*d[5mC]*dA*eG*e[5mC]*e[5mC]*e[5mC]*eT; antisense) [compound 771424],36,–
771428 (eT*eG*eG*e[5mC]*eA*d[5mC]*d[5mC]*dT*d[5mC]*dG*d[5mC]*dA*d[5mC]*d[5mC]*dG*e[5mC]*e[5mC]*eT*eT*eG; antisense) [compound 771428],47,–
771429 (eA*e[5mC]*e[5mC]*eT*eT*dT*dG*dG*d[5mC]*dA*d[5mC]*d[5mC]*dT*d[5mC]*dG*e[5mC]*eA*e[5mC]*e[5mC]*eG; antisense) [compound 771429],11,–
771431 (eG*e[5mC]*e[5mC]*e[5mC]*e[5mC]*d[5mC]*dG*dG*d[5mC]*d[5mC]*dG*d[5mC]*dG*d[5mC]*d[5mC]*eG*eG*e[5mC]*eG*e[5mC]; antisense) [compound 771431],37,–
771432 (e[5mC]*eA*eG*eT*eT*dT*d[5mC]*dT*dT*dG*dA*dG*d[5mC]*dA*d[5mC]*e[5mC]*eG*eA*eG*eT; antisense) [compound 771432],28,–
771436 (eG*eA*eG*e[5mC]*eA*dG*d[5mC]*dA*dG*d[5mC]*dT*d[5mC]*d[5mC]*dA*dG*e[5mC]*eT*eG*e[5mC]*e[5mC]; antisense) [compound 771436],27,–
771437 (eG*e[5mC]*e[5mC]*eT*eG*dG*dA*dG*d[5mC]*dA*dG*d[5mC]*dA*dG*d[5mC]*eT*e[5mC]*e[5mC]*eA*eG; antisense) [compound 771437],0,–
771440 (e[5mC]*eG*eG*e[5mC]*eT*dG*d[5mC]*dG*d[5mC]*dA*dG*dG*d[5mC]*dT*dG*e[5mC]*eG*e[5mC]*eG*e[5mC]; antisense) [compound 771440],48,–
771445 (eA*e[5mC]*eA*eG*e[5mC]*d[5mC]*dT*d[5mC]*dT*dT*dG*dA*d[5mC]*dT*dT*e[5mC]*e[5mC]*eG*eA*eG; antisense) [compound 771445],10,–
771447 (eA*eA*e[5mC]*eA*e[5mC]*dA*dG*d[5mC]*d[5mC]*dT*d[5mC]*dT*dT*dG*dA*e[5mC]*eT*eT*e[5mC]*e[5mC]; antisense) [compound 771447],19,–
771448 (eG*eA*eG*eT*e[5mC]*dG*dG*d[5mC]*dT*dA*dA*dG*dG*dT*dG*eA*eT*eG*eG*eG; antisense) [compound 771448],29,–
771452 (antisense eG*eG*eT*eA*eT*d[5mC]*dT*dG*dG*dA*dG*dT*dA*dA*dG*eG*eA*eG*eG*eG) [compound 771452],55,–
771453 (antisense eA*eT*e[5mC]*eT*eG*dG*dA*d[5mC]*dA*dG*dT*d[5mC]*dT*dG*d[5mC]*eA*eG*eT*eT*eG) [compound 771453],–,38
771463 (antisense eG*eG*e[5mC]*eT*e[5mC]*d[5mC]*dT*dG*dG*dA*d[5mC]*dA*d[5mC]*dA*dG*eT*eA*eG*eA*eG) [compound 771463],10,–

# Same assay, conditions: electroporation with 15,000 nM antisense oligonucleotide (Study 2), 5-10-5 MOE gapmers targeting SEQ ID NO: 1 and 2
Substance,% Inhibition of SMAD7 mRNA [%],% inhibition of SMAD7 mRNA expression [%]
771425 (e[5mC]*e[5mC]*eT*eT*eG*d[5mC]*d[5mC]*d[5mC]*dA*dG*dG*d[5mC]*dA*dG*d[5mC]*eA*eT*e[5mC]*e[5mC]*eA; antisense) [compound 771425],15,–
771433 (eT*e[5mC]*e[5mC]*eT*eT*d[5mC]*dA*dG*dT*dT*dT*d[5mC]*dT*dT*dG*eA*eG*e[5mC]*eA*e[5mC]; antisense) [compound 771433],28,–
771449 (eT*e[5mC]*eG*e[5mC]*eA*dG*dA*dG*dT*d[5mC]*dG*dG*d[5mC]*dT*dA*eA*eG*eG*eT*eG; antisense) [compound 771449],4,–
771451 (antisense eA*eG*eA*e[5mC]*eT*d[5mC]*dT*dA*dG*dT*dT*d[5mC]*dG*d[5mC]*dA*eG*eA*eG*eT*e[5mC]) [compound 771451],–,15
771465 (antisense eA*eT*e[5mC]*e[5mC]*eA*dG*dA*dG*dA*dG*dG*dG*d[5mC]*dT*d[5mC]*e[5mC]*eT*eG*eG*eA) [compound 771465],16,–

# Same assay, conditions: electroporation, 5,000 nM, approximately 24 hours, relative to untreated control cells, gapmers targeting SEQ ID NO: 1 and 2
row,Substance,% inhibition of SMAD7 mRNA expression [%]
1,771428 (eT*eG*eG*e[5mC]*eA*d[5mC]*d[5mC]*dT*d[5mC]*dG*d[5mC]*dA*d[5mC]*d[5mC]*dG*e[5mC]*e[5mC]*eT*eT*eG; antisense) [compound 771428],0
2,771436 (eG*eA*eG*e[5mC]*eA*dG*d[5mC]*dA*dG*d[5mC]*dT*d[5mC]*d[5mC]*dA*dG*e[5mC]*eT*eG*e[5mC]*e[5mC]; antisense) [compound 771436],50
3,771452 (antisense eG*eG*eT*eA*eT*d[5mC]*dT*dG*dG*dA*dG*dT*dA*dA*dG*eG*eA*eG*eG*eG) [compound 771452],25

# Same assay, conditions: electroporation, 15,000 nM antisense oligonucleotide (Study 2), 5-10-5 MOE gapmers targeting SEQ ID NO: 1 and 2
row,Substance,% inhibition of SMAD7 mRNA expression [%]
1,771425 (e[5mC]*e[5mC]*eT*eT*eG*d[5mC]*d[5mC]*d[5mC]*dA*dG*dG*d[5mC]*dA*dG*d[5mC]*eA*eT*e[5mC]*e[5mC]*eA; antisense) [compound 771425],1
2,771426 (e[5mC]*eA*e[5mC]*e[5mC]*eG*d[5mC]*d[5mC]*dT*dT*dG*d[5mC]*d[5mC]*d[5mC]*dA*dG*eG*e[5mC]*eA*eG*e[5mC]; antisense) [compound 771426],28
3,771427 (e[5mC]*e[5mC]*eT*e[5mC]*eG*d[5mC]*dA*d[5mC]*d[5mC]*dG*d[5mC]*d[5mC]*dT*dT*dG*e[5mC]*e[5mC]*e[5mC]*eA*eG; antisense) [compound 771427],36
4,771433 (eT*e[5mC]*e[5mC]*eT*eT*d[5mC]*dA*dG*dT*dT*dT*d[5mC]*dT*dT*dG*eA*eG*e[5mC]*eA*e[5mC]; antisense) [compound 771433],0
5,771434 (eG*e[5mC]*e[5mC]*eG*e[5mC]*dT*d[5mC]*d[5mC]*dT*dT*d[5mC]*dA*dG*dT*dT*eT*e[5mC]*eT*eT*eG; antisense) [compound 771434],27
6,771435 (e[5mC]*eA*eG*e[5mC]*eT*dG*d[5mC]*d[5mC]*dG*d[5mC]*dT*d[5mC]*d[5mC]*dT*dT*e[5mC]*eA*eG*eT*eT; antisense) [compound 771435],29
7,771442 (e[5mC]*eT*e[5mC]*eT*eT*dG*dA*d[5mC]*dT*dT*d[5mC]*d[5mC]*dG*dA*dG*eG*eA*eA*eT*eG; antisense) [compound 771442],22
8,771443 (eG*e[5mC]*e[5mC]*eT*e[5mC]*dT*dT*dG*dA*d[5mC]*dT*dT*d[5mC]*d[5mC]*dG*eA*eG*eG*eA*eA; antisense) [compound 771443],30
9,771449 (eT*e[5mC]*eG*e[5mC]*eA*dG*dA*dG*dT*d[5mC]*dG*dG*d[5mC]*dT*dA*eA*eG*eG*eT*eG; antisense) [compound 771449],0
10,771450 (antisense e[5mC]*eT*eA*eG*eT*dT*d[5mC]*dG*d[5mC]*dA*dG*dA*dG*dT*d[5mC]*eG*eG*e[5mC]*eT*eA) [compound 771450],45
11,771465 (antisense eA*eT*e[5mC]*e[5mC]*eA*dG*dA*dG*dA*dG*dG*dG*d[5mC]*dT*d[5mC]*e[5mC]*eT*eG*eG*eA) [compound 771465],0
12,771466 (antisense eA*eA*eG*eA*eT*dA*dT*d[5mC]*d[5mC]*dA*dG*dA*dG*dA*dG*eG*eG*e[5mC]*eT*e[5mC]) [compound 771466],38
13,771467 (antisense e[5mC]*eA*eT*eA*eG*dA*dA*dG*dA*dT*dA*dT*d[5mC]*d[5mC]*dA*eG*eA*eG*eA*eG) [compound 771467],11

# Same assay, conditions: electroporation, 15,000 nM, approximately 24 hours, relative to untreated control cells, gapmers targeting SEQ ID NO: 1 and 2
row,Substance,% inhibition of SMAD7 mRNA expression [%]
1,771422 (eA*eT*e[5mC]*e[5mC]*eA*dG*d[5mC]*d[5mC]*d[5mC]*dT*dG*d[5mC]*d[5mC]*d[5mC]*dG*eG*eG*e[5mC]*e[5mC]*eG; antisense) [compound 771422],27
2,771430 (e[5mC]*eG*e[5mC]*e[5mC]*e[5mC]*dG*d[5mC]*dG*dG*d[5mC]*dT*dG*dG*d[5mC]*dG*eG*eG*eT*eG*eG; antisense) [compound 771430],40
3,771438 (e[5mC]*e[5mC]*eA*e[5mC]*eG*dG*d[5mC]*d[5mC]*dT*dG*dG*dA*dG*d[5mC]*dA*eG*e[5mC]*eA*eG*e[5mC]; antisense) [compound 771438],26
4,771446 (e[5mC]*eA*e[5mC]*eA*eG*d[5mC]*d[5mC]*dT*d[5mC]*dT*dT*dG*dA*d[5mC]*dT*eT*e[5mC]*e[5mC]*eG*eA; antisense) [compound 771446],55
5,771462 (antisense e[5mC]*eT*eG*eG*eA*d[5mC]*dA*d[5mC]*dA*dG*dT*dA*dG*dA*dG*e[5mC]*e[5mC]*eT*e[5mC]*e[5mC]) [compound 771462],31

# Source: patent US10517889B2, “Modulators of SMAD7 expression” (Ionis Pharmaceuticals, Inc., priority 2017, dated 2019)
